Experimental data from paper PMC7251097, “Aspartate/asparagine-β-hydroxylase: a high-throughput mass spectrometric assay for discovery of small molecule inhibitors” (Scientific Reports, 2020).

Target: T1, His6-AspH315–758 (human aspartate/asparagine-β-hydroxylase, AspH) (Homo sapiens, UniProt Q12797)
T1 construct: N-Terminally His6-tagged human AspH315–758 (His6-AspH315–758) was produced in E. coli BL21 (DE3) cells; made in house; host or cells: E. coli BL21 (DE3), pET-28a(+) vector
T1 sequence (Q12797 315-758): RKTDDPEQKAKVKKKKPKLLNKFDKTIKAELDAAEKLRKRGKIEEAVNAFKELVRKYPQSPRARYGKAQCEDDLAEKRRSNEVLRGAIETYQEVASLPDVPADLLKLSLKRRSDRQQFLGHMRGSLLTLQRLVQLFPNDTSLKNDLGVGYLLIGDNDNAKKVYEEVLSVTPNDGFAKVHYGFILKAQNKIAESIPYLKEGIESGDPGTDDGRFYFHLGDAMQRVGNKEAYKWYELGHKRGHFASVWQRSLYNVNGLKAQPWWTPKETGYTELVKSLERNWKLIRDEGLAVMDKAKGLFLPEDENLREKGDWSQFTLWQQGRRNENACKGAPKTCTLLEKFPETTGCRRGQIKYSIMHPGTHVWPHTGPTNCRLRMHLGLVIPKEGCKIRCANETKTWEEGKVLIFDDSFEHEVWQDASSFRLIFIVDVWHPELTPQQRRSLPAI
Assay: SPE-MS AspH inhibition assay (LOPAC screen at fixed 20 μM and IC50 dose-response), hydroxylation of cyclic peptide hFX-CP101–119
Assay type: biochemical
Conditions: not given

| Compound | % conversion [%] | Plate 2 (% conversion) [%] | Plate 3 (% conversion) [%] | Plate 1 (% conversion) [%] | Plate 1 (% inhibition) [%] | Inhibition at 20 µM [%] |
| --- | --- | --- | --- | --- | --- | --- |
| COc1ccccc1N1CCNCC1.Cl | 37.50 | – | – | – | – | – |
| C[N+]1(C)CCN(c2ccccc2)CC1.[I-] | – | 36.09 | – | – | – | – |
| CN1C2CCC1CC(OC(=O)c1c[nH]c3ccccc13)C2.Cl (stereo not shown) | 31.98 | – | – | – | – | – |
| C[C@]12CC[C@@H](O)C[C@@H]1CC[C@@H]1[C@@H]2CC[C@]2(C)[C@@H](C(=O)CO)CC[C@@H]12 | – | – | 42.66 | – | – | – |
| Cl.N=C(N)c1ccc(CS(=O)(=O)F)cc1 | – | – | 34.27 | – | – | – |
| Cl.NCCc1ccc(S(=O)(=O)F)cc1 | – | – | – | 34.69 | 3.52 | – |
| COc1ccc2[nH]c3c(c2c1)CCNC3 | – | – | – | 36.98 | – | – |
| Cc1cccc(C#Cc2ccccc2)n1.Cl | – | – | 40.82 | – | – | – |
| Oc1cc(-c2ccccc2)nc2nc(Cl)ccc12 | – | – | – | 39.07 | -9.52 | – |
| Cl.Nc1c2c(nc3ccccc13)CCCC2 | – | – | – | 23.39 | – | – |
| C[C@H]1CCC/C=C/[C@@H]2C[C@H](O)C[C@H]2[C@H](O)/C=C/C(=O)O1 | – | – | – | 38.82 | -8.79 | – |
| C[C@@H](N)Cc1cnc[nH]1.Cl.Cl | – | 36.76 | – | – | – | – |
| CNCCc1c[nH]c2ccc(O)cc12.O=C(O)C(=O)O | – | – | 9.71 | – | – | – |
| CCCCCCN(CCCCCC)C(=O)Cc1c(-c2ccc(F)cc2)[nH]c2ccccc12 | – | 35.52 | – | – | – | – |
| Cc1ccc(S(=O)(=O)N[C@@H](CCCCN)C(=O)CCl)cc1.Cl | 33.91 | – | – | – | – | – |
| 5-Bromo-2-deoxyuridine | – | – | – | 35.50 | 1.12 | – |
| 10058-F4 | – | – | – | 30.76 | 15.22 | – |
| CC(N)c1cccc(Cl)c1Cl.Cl (racemic) | – | 38.94 | – | – | – | – |
| NC(Cc1cc(O)c(O)cc1O)C(=O)O (racemic) [6-Hydroxy-DL-DOPA, reference compound] | – | 1.44 | – | – | – | 103.1 |
| CN1[C@H]2C[C@H](OC(=O)[C@H](CO)c3ccccc3)C[C@@H]1[C@@H](O)C2 (racemic) [(+/-)-Anisodamine] | – | 36.39 | – | – | – | – |
| NC(CP(=O)(O)O)C(=O)O (racemic) [(±)-2-Amino-3-phosphonopropionic acid] | – | – | – | 38.27 | -7.14 | – |
| NC(CCP(=O)(O)O)C(=O)O (racemic) [(±)-2-Amino-4-phosphonobutyric acid] | – | – | – | 37.71 | -5.48 | – |
| NC(CCCP(=O)(O)O)C(=O)O (racemic) [(±)-2-Amino-5-phosphonopentanoic acid] | – | – | – | 39.06 | – | – |
| CC1CCN=C(N)S1.Cl (racemic) [(±)-AMT hydrochloride] | – | – | – | 36.89 | -3.04 | – |

Same assay, conditions: 20 µM

| Compound | % inhibition [%] | Plate 2 (% inhibition) [%] |
| --- | --- | --- |
| COc1ccccc1N1CCNCC1.Cl | -3.01 | – |
| C[N+]1(C)CCN(c2ccccc2)CC1.[I-] | – | -0.39 |
| C[C@@H](N)Cc1cnc[nH]1.Cl.Cl | – | -2.41 |
| CCCCCCN(CCCCCC)C(=O)Cc1c(-c2ccc(F)cc2)[nH]c2ccccc12 | – | 1.31 |
| CC(N)c1cccc(Cl)c1Cl.Cl (racemic) | – | -8.91 |
| NC(Cc1cc(O)c(O)cc1O)C(=O)O (racemic) [6-Hydroxy-DL-DOPA, reference compound] | – | 103.09 |
| CN1[C@H]2C[C@H](OC(=O)[C@H](CO)c3ccccc3)C[C@@H]1[C@@H](O)C2 (racemic) [(+/-)-Anisodamine] | – | -1.30 |

Same assay, conditions: AspH activity; fixed compound concentration 20 μM; initial LOPAC screen; 0.5%v/v DMSO

| Compound | Inhibition at 20 µM [%] |
| --- | --- |
| Br.Oc1cc2c(c(Cl)c1O)CCNCC2c1ccccc1 (racemic) [(±)-6-Chloro-PB hydrobromide, reference compound] | 98.8 |

Same assay, conditions: LOPAC Plate 4, compound at 20 uM

| Compound | % inhibition [%] |
| --- | --- |
| Cc1ccc(S(=O)(=O)N[C@@H](Cc2ccccc2)C(=O)CCl)cc1 | -4.78 |

Same assay, conditions: LOPAC Plate 4, compound at 20 uM, substrate conversion

| Compound | % conversion [%] |
| --- | --- |
| C[N+]1(C)C2CCC1CC(OC(=O)c1c[nH]c3ccccc13)C2.[I-] (stereo not shown) | 36.85 |
| Cc1ccc(S(=O)(=O)N[C@@H](Cc2ccccc2)C(=O)CCl)cc1 | 38.10 |
| C[C@H](O)[C@H](O)[C@H]1CNc2nc(N)[nH]c(=O)c2N1.Cl | 25.86 |
| CCCCCCCCCC(=O)NC(CN1CCOCC1)[C@H](O)c1ccccc1.Cl (mixture of isomers) | 45.09 |
| Br.Oc1cc2c(c(Cl)c1O)CCNCC2c1ccccc1 (racemic) [(±)-6-Chloro-PB hydrobromide, reference compound] | 2.77 |

Same assay, conditions: LOPAC compound at 20uM, plate 2; conversion of substrate peptide

| Compound | Plate 2 (% conversion) [%] |
| --- | --- |
| Nc1ncnc2c1c(-c1ccc(Oc3ccccc3)cc1)cn2C1CCCC1 | 45.34 |
| C[N+](C)(C)CCOP(=O)([O-])OP(=O)([O-])OC[C@H]1O[C@@H](n2ccc(N)nc2=O)[C@H](O)[C@@H]1O.[Na+] | 36.80 |
| Cl.O[Si](CCCN1CCCCC1)(c1ccc(F)cc1)C1CCCCC1 (stereo not shown) | 40.91 |
| COC(=O)[C@@H](N)Cc1ccc(O)c(O)c1.Cl | 10.54 |
| Nc1ncnc2c1ncn2[C@@H]1O[C@H](COP(=O)(O)OP(=O)(O)OP(=O)(O)OP(=O)(O)OC[C@H]2O[C@@H](n3cnc4c(N)ncnc43)[C@H](O)[C@@H]2O)[C@@H](O)[C@H]1O | 27.58 |
| Br.CCCN1CCc2cc(O)cc3c2[C@H]1Cc1ccc(O)c(O)c1-3 | 6.67 |
| Br.CN1CCc2cc(O)cc3c2[C@H]1Cc1ccc(O)c(O)c1-3 | 6.73 |
| Br.CCCN(CCC)C1CCc2ccc(O)cc2C1 (racemic) [(±)-7-Hydroxy-DPAT hydrobromide] | 37.82 |

Same assay, conditions: LOPAC compound at 20uM, plate 2; normalised to DMSO and 2,4-PDCA controls

| Compound | Plate 2 (% inhibition) [%] |
| --- | --- |
| Nc1ncnc2c1c(-c1ccc(Oc3ccccc3)cc1)cn2C1CCCC1 | -28.02 |
| C[N+](C)(C)CCOP(=O)([O-])OP(=O)([O-])OC[C@H]1O[C@@H](n2ccc(N)nc2=O)[C@H](O)[C@@H]1O.[Na+] | -2.53 |
| Cl.O[Si](CCCN1CCCCC1)(c1ccc(F)cc1)C1CCCCC1 (stereo not shown) | -14.81 |
| COC(=O)[C@@H](N)Cc1ccc(O)c(O)c1.Cl | 75.90 |
| Nc1ncnc2c1ncn2[C@@H]1O[C@H](COP(=O)(O)OP(=O)(O)OP(=O)(O)OP(=O)(O)OC[C@H]2O[C@@H](n3cnc4c(N)ncnc43)[C@H](O)[C@@H]2O)[C@@H](O)[C@H]1O | 25.01 |
| Br.CCCN1CCc2cc(O)cc3c2[C@H]1Cc1ccc(O)c(O)c1-3 | 87.47 |
| Br.CN1CCc2cc(O)cc3c2[C@H]1Cc1ccc(O)c(O)c1-3 | 87.29 |
| Br.CCCN(CCC)C1CCc2ccc(O)cc2C1 (racemic) [(±)-7-Hydroxy-DPAT hydrobromide] | -5.57 |

Same assay, conditions: LOPAC compound at 20uM, plate 3; conversion of substrate peptide

| Compound | Plate 3 (% conversion) [%] |
| --- | --- |
| CC1CNCCN1S(=O)(=O)c1cccc2cnccc12.Cl.Cl (stereo not shown) | 5.68 |
| COCc1nc2c([nH]1)c(=O)n(C)c(=O)n2CC(C)C | 35.26 |
| COC(=O)[C@@H](N)CCCN=C(N)N[N+](=O)[O-].Cl | 34.54 |
| Nc1ncnc2c1ncn2[C@@H]1O[C@H](COP(=O)(O)CP(=O)(O)OP(=O)([O-])[O-])[C@@H](O)[C@H]1O.[Li+].[Li+] | 17.86 |
| CC(N)(Cc1ccc(O)c(O)c1)C(=O)O (racemic) | 9.94 |

Same assay, conditions: LOPAC compound at fixed 20 uM; plate 1, normalised to DMSO and 2,4-PDCA controls

| Compound | Plate 1 (% inhibition) [%] |
| --- | --- |
| C=CCn1c(=O)c2c(nc(-c3ccc(S(=O)(=O)O)cc3)n2C)n(C)c1=O | -6.98 |
| Cl.NC1(C(=O)O)CCCCC1 | 1.04 |
| Cl.NC1(C(=O)O)CC1 | -3.97 |
| Clc1ccc(C(c2ccccc2Cl)C(Cl)Cl)cc1 (stereo not shown) | -5.18 |
| COc1ccc2c(c1)c(CC(=O)O)c(C)n2Cc1ccc(Cl)cc1 | 5.27 |
| CSc1nc(N)c2ncn([C@@H]3O[C@H](COP(=O)([O-])OP(=O)([O-])OP(=O)([O-])[O-])[C@@H](O)[C@H]3O)c2n1.[Na+].[Na+].[Na+].[Na+] | 63.66 |
| Br.Br.N=C(N)SCCN | -13.77 |
| CSc1nc(N)c2ncn([C@@H]3O[C@H](COP(=O)([O-])OP(=O)([O-])[O-])[C@@H](O)[C@H]3O)c2n1.O.[Na+].[Na+].[Na+] | 16.28 |
| COc1ccc2[nH]c3c(c2c1)CCNC3 | -3.29 |
| Cl.Nc1ccn([C@@H]2O[C@H](CO)[C@@H](O)[C@@H]2O)c(=O)n1 | -2.68 |
| COc1cccc(C(=O)NCCN2CCN(c3ccc(Cl)cc3)CC2)c1 | -7.35 |
| Cl.NOCC(=O)O.NOCC(=O)O | -6.07 |
| Cl.Cl.Fc1ccc([C@@H]2CCNC[C@H]2COc2ccc3c(c2)OCO3)cc1.Fc1ccc([C@@H]2CCNC[C@H]2COc2ccc3c(c2)OCO3)cc1.O | -22.48 |
| COC(=O)C(N)Cc1ccc(Cl)cc1.Cl (racemic) | 1.48 |
| NC(CCCP(=O)(O)O)C(=O)O (racemic) [(±)-2-Amino-5-phosphonopentanoic acid] | -9.50 |
| NCC(CC(=O)O)c1ccc(Cl)cc1 (racemic) [(±)-Baclofen] | -1.99 |

Same assay, conditions: LOPAC compound at fixed 20 uM; substrate conversion, plate 1

| Compound | Plate 1 (% conversion) [%] |
| --- | --- |
| C=CCn1c(=O)c2c(nc(-c3ccc(S(=O)(=O)O)cc3)n2C)n(C)c1=O | 38.22 |
| Cl.NC1(C(=O)O)CCCCC1 | 35.52 |
| Clc1ccc(C(c2ccccc2Cl)C(Cl)Cl)cc1 (stereo not shown) | 37.61 |
| COc1ccc2c(c1)c(CC(=O)O)c(C)n2Cc1ccc(Cl)cc1 | 34.10 |
| CSc1nc(N)c2ncn([C@@H]3O[C@H](COP(=O)([O-])OP(=O)([O-])OP(=O)([O-])[O-])[C@@H](O)[C@H]3O)c2n1.[Na+].[Na+].[Na+].[Na+] | 14.49 |
| Br.Br.N=C(N)SCCN | 40.50 |
| CSc1nc(N)c2ncn([C@@H]3O[C@H](COP(=O)([O-])OP(=O)([O-])[O-])[C@@H](O)[C@H]3O)c2n1.O.[Na+].[Na+].[Na+] | 30.40 |
| Cl.Nc1ccn([C@@H]2O[C@H](CO)[C@@H](O)[C@@H]2O)c(=O)n1 | 36.77 |
| COc1cccc(C(=O)NCCN2CCN(c3ccc(Cl)cc3)CC2)c1 | 38.34 |
| Cl.NOCC(=O)O.NOCC(=O)O | 37.91 |
| Cl.Cl.Fc1ccc([C@@H]2CCNC[C@H]2COc2ccc3c(c2)OCO3)cc1.Fc1ccc([C@@H]2CCNC[C@H]2COc2ccc3c(c2)OCO3)cc1.O | 43.42 |
| COC(=O)C(N)Cc1ccc(Cl)cc1.Cl (racemic) | 35.38 |
| NCC(CC(=O)O)c1ccc(Cl)cc1 (racemic) [(±)-Baclofen] | 36.54 |
